“Also recorded” adds a separate entry of the source.
Experiments:
Format in all cases: cell-based, rat
[1] = test system: Caspase 2 bound to endogenous RAIDD; assay: Caspase 2 and RAIDD co-immunoprecipitation in primary hippocampal neurons; settings: primary hippocampal neurons treated with AFDAFC-Pen1 prior to Aβ1-42; Western blot; FIG. 13
Experimental: Caspase 2 and RAIDD Co-Immunoprecipitation (IP). Mouse IgG magnetized beads (Invitrogen) were pre-coated with a RAIDD antibody (anti-CRADD; Abnova) for 2 hrs at 4° C. on a rotator. 2 μg of antibody was used per 30 μl of beads. Primary rat hippocampal neurons were treated with Aβ1-42 (3 μM) for 1 or 2 hrs. Cell lysates were prepared using CHAPS lysis buffer. 70-120 μg of lysates were loaded onto anti-CRADD pre-coated beads and incubated overnight at 4° C. on a rotator. Following the overnight incubation, the captured proteins were boiled off the beads at 100° C. for 5 mins. The immunoprecipitated samples, along with inputs, were then subjected to Western blotting using affinity purified polyclonal anti-Caspase 2.

Bim = assay: Western blot of Bim protein in hippocampal neuron cultures; settings: primary hippocampal neurons treated with AFDAFC-Pen1 prior to Aβ1-42; FIG. 14
Experimental: Cell Culture of primary hippocampal neuron cultures. Neurons were cultured as previously described (Akpan et al., J Neurosci. 31:8894-904, 2011). Briefly, embryonic day 18 rat fetuses were removed from CO2-sacrificed pregnant Sprague Dawley rats (Charles River). The hippocampus was dissected from surrounding tissue and the meninges removed. Pooled hippocampi were mechanically dissociated in a serum-free defined medium. Medium consisted of a 1:1 mixture of Eagle's MEM and Ham's F12 (Invitrogen) supplemented with glucose (6 mg/ml), insulin (25 μg/ml), selenium (30 nM), progesterone (20 nM), transferrin (100 μg/ml), putrescine (60 μg/ml), penicillin (0.5 U/ml), and streptomycin (0.5 μg/ml). Dissociated cells were grown on poly-D-lysine coated plates or 8-well chamber slides. Neurons were cultured for 7 days prior to experimental treatments.
Western Blot. Hippocampal neurons or sympathetic neurons were lysed in CHAPS lysis buffer ([…], 50 mM HEPES, 0.1% CHAPS, protease inhibitor tablet, pH 7.4). Protein concentration was determined using BioRad protein assay reagent (Bio-Rad). Equal amounts of protein were loaded onto 10% or 12% polyacrylamide gels. […] Proteins were detected using either enhanced chemiluminescence (Thermo Scientific) or fluorescence using the Odyssey infrared imaging system (LI-COR Biosciences). The relative densities of immunopositive bands were analyzed using ImageJ.

[2] = test system: primary hippocampal neurons; assay: Cell survival assay, primary hippocampal neurons treated with Aβ1-42; settings: AFDAFC-Pen1 final concentration 80 nM, survival quantified after 1 day, n=3, FIG. 7
Experimental: Peptide Preparation: AFDAFC (SEQ ID NO: 1) was synthesized by Multiple Peptide Systems (San Diego, Calif.). Lyophilized peptide was resuspended in sterile ddH2O and linked in equimolar amounts with Pen1 (Troy et al. Proc. Natl. Acad. Sci. U.S.A. 93: 5635-5640 (1996)) for a stock concentration of 80 μM. AFDAFC-Pen1 was used at a final concentration of 80 nM.
Embryonic day 18 rat fetuses were removed from CO2-sacrificed pregnant Sprague Dawley rats (Charles River). The hippocampus was dissected out from surrounding tissue and the meninges completely removed. Pooled tissue was mechanically dissociated in a serum-free defined medium. […]
Cell Survival Assay. Hippocampal or sympathetic neuron survival was scored as previously reported (Troy et al., J Neurosci. 17:1911-8, 1997). […] Intact nuclei were quantified using a hemacytometer. Triplicate wells were scored and values reported as mean±SEM. Significance was calculated by Student's t-test. For sympathethic neurons, each culture was scored as numbers of living, phase-bright neurons counted in the same field at various times. Three replicate cultures were assessed for each condition, and data are normalized to numbers of neurons present in each culture at the time of Aβ1-42 addition or NGF deprivation and reported as mean±SEM.

AFDAFC-Pen1: Caspase 2 activation inhibitory peptide AFDAFC (SEQ ID NO: 1) conjugated to cell-penetrating peptide Pen1 (RQIKIWFQNRRMKWKK)
Aβ1-42-induced binding of Caspase 2 to RAIDD [1]: reduces Aβ1-42-induced binding of Caspase 2 to RAIDD
Bim induction elicited by Aβ1-42 (protein level) (Bim): preventing Bim induction; also recorded: prevents Bim induction
Aβ-mediated cell death (survival) [2]: abrogates Aβ-mediated cell death

From patent US9376466B2, “Peptide inhibitors of caspase 2 activation” (The Trustees of Columbia University in the city of New York, priority 2011, dated 2016)
